Legend:
[1] = system: patients suffering from primary hip or knee arthritis (I, II or III); assay: Clinical trial: Lequesne algo-functional index of severity; type: in vivo, humans; conditions: for Decrease in the Lequesne scale in the 25% of patients with enhanced recovery / Decrease in the Lequesne scale in the 25% of patients with enhanced recovery (percent): 25% of the patients
Experimental: (§1) Data from a clinical trial with humans is provided herein. The trial was performed with three arms, at random and blind, of patients suffering from different degrees of primary hip or knee arthritis (I, II or III). […] Pain and joint function performance was checked every fifteen days by using the pain VAS and the Lequesne algo-functional index of severity. The VAS assesses the pain in the knee by a visual scale of 100 mm with a total of 10 divisions wherein 0 means no pain and 10 means the deepest pain. […] The severity index is given by the addition of the scores obtained in each item, wherein 24 is the maximum possible score. The higher the index, the more severe is the clinical picture.

[2] = 37° C.; cited from earlier work
[3] = system: patients suffering from primary hip or knee arthritis (I, II or III); assay: Clinical trial: pain VAS; type: in vivo, humans; conditions: check-up visits every fifteen days
Experimental: as §1

[4] = patients in clinical trials; cited from earlier work

N[C@H]1C(O)O[C@H](CO)[C@@H](O)[C@@H]1O (stereo partly drawn) [glucosamine, 2-amin-2 desoxy-alpha-D-glucose]
Decrease in the Lequesne scale in the 25% of patients with enhanced recovery ([1]; 90 days oral treatment): 3.75 scores | Decrease in the Lequesne scale in the 25% of patients with enhanced recovery (percent) ([1]; 90 days oral treatment): 32% | Average improvement in the Lequesne index in 50% of the patients ([1]; 50% of the patients, 90 days oral treatment): 1.5 scores | Lequesne scale (Algo-functional index) average decrease ([1]; 90 days, single daily oral dose, 1,500 mg glucosamine sulphate and/or 15 mg meloxicam): 11% | pKa [2]: 6.91 | Time after starting treatment at which VAS value showed the highest reduction [3]: 30 days

Cc1cnc(NC(=O)C2=C(O)c3ccccc3S(=O)(=O)N2C)s1 [meloxicam, (8E)-8-[hydroxy-[(5-methyl-1,3-thiazol-2-yl)amino]methylidene]-9-methyl-10,10-dioxo-10λ^6-thia-9-azabicyclo[4.4.0]deca-1,3,5-trien-7-one]
Decrease in the Lequesne scale in the 25% of patients with enhanced recovery ([1]; 90 days oral treatment): 4.5 scores | Decrease in the Lequesne scale in the 25% of patients with enhanced recovery (percent) ([1]; 90 days oral treatment): 38% | Occurrence of adverse gastrointestinal events (bleeding, perforation or ulcers) versus other nonsteroidal anti-inflammatory drugs [4]: less frequent | Time after starting treatment at which VAS value showed the highest reduction [3]: 15 days
